Source: patent US20260061008A1, “METHODS OF INCREASING MESENCHYMAL STROMAL CELL BIOSYNTHESIS OF SPECIALIZED PRO-RESOLVING MEDIATORS AND METHODS OF USE” (University of Oregon, priority 2022, published 2026)

Legend:
[1] = test system: MSCs encapsulated in PEG-4MAL hydrogels; assay: RvD1 ELISA of media from MSCs encapsulated in PEG-4MAL hydrogels and treated with DHA; format: cell-based; settings: 160 μM DHA, TCP and PEG-4MAL encapsulated MSCs
Description: MSCs were cultured in Tissue Culture Plastic (TCP) or encapsulated in PEG-4MAL hydrogels. The 20 kDa four-arm PEG-4MAL was sourced from Laysan Bio (Item #: 4arm-PEG-20K-5g). A solution of 4% w/v PEG in a 0.5 M (pH=7) MES buffer was prepared. The two peptides, RGD (GCGYGRGDSPG; SEQ ID NO: 1) for functionalization of the gel and VPM (GCRDVPMSMRGGDRCG; SEQ ID NO: 2) for crosslinking were also dissolved in the 0.5 M MES buffer. The hydrogels were prepared using a 2:1:1:1 volume ratio of PEG: RGD: cells/PBS: VPM. The 4% PEG translates to 2 mM in the hydrogel prepared from a 5 mM PEG stock solution. Based on the concentration of maleimides per PEG molecule (8 mM maleimide in 2 mM PEG-4MAL) the RGD concentration was 0.768 mM final concentration in the gel (from a 3.84 mM stock and accounting for ˜96% purity) and the VPM concentration required to cross-link the remaining maleimides in the PEG was 3.456 mM final in the gel (17.28 mM stock). […]
MSCs were treated with 160 μM DHA in the hydrogels in three different conditions. […] Samples of cell culture media were taken incrementally over a period of five days and Resolvin D1 levels were measured via ELISA assay. In addition, samples of the cell culture medium were taken 24 hours after treatment for each group and these samples were analyzed by LCMS (Wayne State University Lipidomics core facility).

[2] = test system: OA progression; settings: mice, repeated intra-articular injections into knee joints; cited from earlier work

SMILES | Duration of continued RvD1 production [1] | OA progression [2]
CC/C=C\C/C=C\C/C=C\C/C=C\C/C=C\C/C=C\CCC(=O)O [DHA, docosahexaenoic acid] | at least 120 hours | 
CC/C=C\C[C@H](O)/C=C/C=C\C=C\C=C\[C@@H](O)[C@@H](O)C/C=C\CCC(=O)O [Resolvin D1] |  | attenuate OA progression
